According to ChEMBL document CHEMBL5523682, “The formyl peptide receptors FPR1 and FPR2 as targets for inflammatory disorders: recent advances in the development of small-molecule agonists” (Eur J Med Chem, 2024):
pEC50: −log10 of the molar value. Values belong to the compound of their own block, whether it stands above or below them.

Legend:
[1] = target: T1, fMet-Leu-Phe receptor (Homo sapiens, UniProt P21462); experiment: Agonist activity at FPR1 (unknown origin) in HEK293 cells; type: functional, cell-based
T1 sequence (P21462 whole entry): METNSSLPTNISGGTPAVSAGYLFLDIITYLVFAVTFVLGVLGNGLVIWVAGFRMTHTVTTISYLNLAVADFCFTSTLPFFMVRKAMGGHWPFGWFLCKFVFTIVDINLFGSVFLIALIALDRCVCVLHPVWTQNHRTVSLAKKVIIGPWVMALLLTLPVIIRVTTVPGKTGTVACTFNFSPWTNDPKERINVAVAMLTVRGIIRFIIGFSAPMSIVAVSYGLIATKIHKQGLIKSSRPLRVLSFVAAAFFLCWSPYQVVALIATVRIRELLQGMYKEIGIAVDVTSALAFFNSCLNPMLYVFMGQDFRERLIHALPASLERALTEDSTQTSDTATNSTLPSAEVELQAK

[2] = organism: Homo sapiens; experiment: Selectivity ratio of EC50 for agonist activity at human FPR1 transfected in CHO cells to EC50 for agonist activity at human FPR2 transfected in CHO cells; type: cell-based
[3] = target: T2, N-formyl peptide receptor 2 (Homo sapiens, UniProt P25090); experiment: Agonist activity at FPR2 (unknown origin) in HEK293 cells; type: functional, cell-based
T2 sequence (P25090 whole entry): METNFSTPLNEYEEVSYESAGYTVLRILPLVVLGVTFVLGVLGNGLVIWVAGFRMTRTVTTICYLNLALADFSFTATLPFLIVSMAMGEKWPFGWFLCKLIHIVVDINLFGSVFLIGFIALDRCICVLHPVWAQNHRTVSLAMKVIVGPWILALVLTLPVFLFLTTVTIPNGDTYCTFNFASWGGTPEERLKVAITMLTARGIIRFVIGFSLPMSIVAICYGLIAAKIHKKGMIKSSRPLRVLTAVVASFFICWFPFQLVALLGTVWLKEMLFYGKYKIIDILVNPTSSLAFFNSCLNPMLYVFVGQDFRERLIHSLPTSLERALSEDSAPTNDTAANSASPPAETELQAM

[4] = target: T1, fMet-Leu-Phe receptor; experiment: Agonist activity at human FPR1 expressed in HL-60 cells assessed as increase in calcium mobilization by FLIPR analysis; type: functional, cell-based
[5] = target: T2, N-formyl peptide receptor 2; experiment: Agonist activity at human FPR2 expressed in HL-60 cells assessed as increase in calcium mobilization by FLIPR analysis; type: functional, cell-based
[6] = target: T1, fMet-Leu-Phe receptor; experiment: Agonist activity at human FPR1 transfected in CHO cells by cAMP assay; type: functional, cell-based
[7] = target: T3, Formyl peptide receptor 2 (Mus musculus, UniProt O88536); experiment: Agonist activity at mouse FPR2
T3 sequence (O88536 whole entry): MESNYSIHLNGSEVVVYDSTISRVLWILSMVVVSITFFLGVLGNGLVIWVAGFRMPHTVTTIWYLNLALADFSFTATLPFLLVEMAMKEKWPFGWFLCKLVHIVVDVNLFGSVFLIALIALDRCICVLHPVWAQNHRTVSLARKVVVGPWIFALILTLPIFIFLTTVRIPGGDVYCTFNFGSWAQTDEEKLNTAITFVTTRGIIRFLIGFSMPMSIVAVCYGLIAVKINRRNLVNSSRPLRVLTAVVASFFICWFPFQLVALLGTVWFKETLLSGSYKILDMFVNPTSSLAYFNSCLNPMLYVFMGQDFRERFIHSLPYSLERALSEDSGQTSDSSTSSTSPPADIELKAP

[8] = target: T4, fMet-Leu-Phe receptor (Mus musculus, UniProt P33766); experiment: Agonist activity at mouse FPR1; type: functional
T4 sequence (P33766 whole entry): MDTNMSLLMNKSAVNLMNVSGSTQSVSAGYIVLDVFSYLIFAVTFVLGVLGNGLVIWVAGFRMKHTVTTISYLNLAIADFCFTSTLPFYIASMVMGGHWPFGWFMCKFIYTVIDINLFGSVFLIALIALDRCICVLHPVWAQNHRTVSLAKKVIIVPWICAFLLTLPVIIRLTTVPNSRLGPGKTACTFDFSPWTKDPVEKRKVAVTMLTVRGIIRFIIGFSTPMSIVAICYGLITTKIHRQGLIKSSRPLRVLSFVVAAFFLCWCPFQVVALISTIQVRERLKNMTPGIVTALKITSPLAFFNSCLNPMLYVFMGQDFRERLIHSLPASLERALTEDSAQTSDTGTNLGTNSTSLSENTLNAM

[9] = target: T2, N-formyl peptide receptor 2; experiment: Agonist activity at FPR2 (unknown origin) expressed in CHO cells by cAMP assay; type: functional, cell-based
[10] = target: T2, N-formyl peptide receptor 2; experiment: Agonist activity at human FPR2 expressed in CHO cells assessed as increase in calcium mobilization by Fluo-4 AM dye based fluorescence assay; type: functional, cell-based

pEC50 [1]: 5.33
SMILES: COC(=O)c1ccc(NC(=O)CSc2nc3cc(OC)ccc3[nH]2)cc1

pEC50 [3]: 5.59
SMILES: CCC(Nc1ccc(OC)cc1)C(=O)N/N=C(C)/C=C/c1ccccc1 (configuration not stated)

pEC50 [4]: 5.48 | pEC50 [5]: 5.62
SMILES: CCCc1cn(-c2cccc(OC)c2)c(=O)n(CC(=O)Nc2ccc(Br)cc2)c1=O

pEC50 [6]: 8.00
SMILES: COc1cc(OC)cc(-n2c(=O)c(NC(=O)c3ccc(OC(F)F)cc3)c(-c3c(F)cc(OC)cc3F)n2C)c1
Ratio EC50 [2]: 3400

pEC50 [7]: 6.05 | pEC50 [8]: 6.46
SMILES: CC(C)c1c(NC(=O)Nc2ccc(Cl)cc2)c(=O)n(-c2ccccc2)n1C

pEC50 [3]: 9.40
SMILES: O=C(Nc1ccc(Br)nc1)[C@@H]1C2CCC([C@H]1C(=O)OCCC1CCNCC1)C21CC1 (some centres not stated)

pEC50 ([4]; hl-60): 5.80 | pEC50 ([5]; hl-60): 6.92
SMILES: COc1cccc(-c2cc(C#N)c(=O)n(CC(=O)Nc3ccc(Br)cc3)c2C)c1

pEC50 [9]: 8.30
SMILES: COc1ccc(NC(=O)N[C@@H]2CCCN(c3ccc(-c4ccccc4C(N)=O)cc3)C2=O)cc1

pEC50 [9]: > 8.30
SMILES: Cc1ccc(NC(=O)N[C@@H]2CCCN(c3ccc(-c4ccccc4C(N)=O)cc3)C2=O)cc1

pEC50 ([1]; hek293): 5.27 | pEC50 ([3]; hek293): 8.40
SMILES: COc1cc(F)c(-n2c(C3CC(N)C3)cnc2NC(=O)c2ccc(OC(F)F)cc2)c(F)c1 (configuration not stated)

pEC50 [9]: 8.30
SMILES: NC(=O)c1ccccc1-c1ccc(N2CCC[C@H](NC(=O)Nc3ccc(Cl)cc3)C2=O)cc1

pEC50 [1]: 5.43 | pEC50 [3]: 7.82
SMILES: COc1ccc(NC(=O)CSc2nc3cc(OC)ccc3[nH]2)cc1

pEC50 [4]: 4.62 | pEC50 [5]: 5.00
SMILES: C[C@@H]1CC(c2ccccc2)=NN(CC(=O)Nc2ccc(Br)cc2)C1=O

pEC50 [6]: < 5.00
SMILES: COc1cc(C2CCNCC2)nc(-n2c(=O)c(NC(=O)c3ccc(OC(F)F)cc3)c(-c3c(F)cc(OC)cc3F)n2C)c1

pEC50 [4]: 6.52
SMILES: COc1ccc(C2(CNC(=O)[C@](C)(Cc3c[nH]c4ccccc34)NC(=O)Nc3ccc([N+](=O)[O-])cc3)CCCCC2)nc1

pEC50 ([4]; hl-60): 6.55 | pEC50 ([5]; hl-60): 6.64
SMILES: COc1cccc(-c2csc(=O)n2CC(=O)Nc2ccc(Br)cc2)c1

pEC50 [3]: 5.68
SMILES: O=C(CN1CCN(c2ccc(Cl)cc2)CC1)Nc1ccc(Br)cc1

More lines, now with the values behind:

SMILES: COc1cc(F)c(-c2c(NC(=O)c3ccc(OC(F)F)cc3)c(=O)n(-c3ccccc3)n2C)c(F)c1
Ratio EC50 [2]: 200

SMILES: COC(=O)c1cccc(-n2c(=O)c(NC(=O)c3ccc(OC(F)F)cc3)c(-c3c(F)cc(OC)cc3F)n2C)c1
Ratio EC50 [2]: 1

SMILES: COc1cccc(-n2c(=O)c(NC(=O)c3ccc(OC(F)F)cc3)c(-c3c(F)cc(OC)cc3F)n2C)c1
Ratio EC50 [2]: 0.6

SMILES: C[C@H]1CC(c2ccccc2)=NN(CC(=O)Nc2ccc(Br)cc2)C1=O
pEC50 [4]: 4.70 | pEC50 [5]: 4.96

SMILES: CS(=O)(=O)c1ccccc1-c1ccc(N2CC[C@@H](NC(=O)Nc3ccc(Cl)cc3F)C2=O)c(F)c1F
Ratio EC50 [2]: 66

SMILES: Cc1ccc(C2(NC(=O)[C@@H]3C4CCC([C@H]3C(=O)NCCCCN3CCCC3)C43CC3)CC2)cc1 (some centres not stated)
pEC50 [3]: 8.40

SMILES: CC[C@H](C)[C@H](NC(=O)Nc1ccc(Br)cc1F)C(=O)O
pEC50 [10]: 7.06

SMILES: CS(=O)(=O)Nc1ccccc1-c1ccc(N2CC[C@@H](NC(=O)Nc3ccc(Cl)cc3F)C2=O)c(F)c1F
Ratio EC50 [2]: 340

SMILES: N#Cc1ccccc1-c1ccc(N2CC[C@@H](NC(=O)Nc3ccc(Cl)cc3F)C2=O)c(F)c1F
Ratio EC50 [2]: 14

SMILES: CSCC[C@H](NC=O)C(=O)N[C@@H](CC(C)C)C(=O)N[C@@H](Cc1ccccc1)C(=O)O
pEC50 [8]: 4.64

SMILES: O=C(NCCCCN1CCCCC1)[C@@H]1C2CCC([C@H]1C(=O)Nc1ccc(Br)cc1)C21CC1 (some centres not stated)
pEC50 [3]: 10.15
